Data as given in ChEMBL document CHEMBL1157194, “Recent advances in selective alpha1-adrenoreceptor antagonists as antihypertensive agents” (Bioorg Med Chem, 2008).

How the values were obtained:
D(4) dopamine receptor = target: T1, D(4) dopamine receptor (Homo sapiens, UniProt P21917); assay: Binding affinity to human cloned dopamine D4.4 receptor
T1 sequence (P21917 whole entry): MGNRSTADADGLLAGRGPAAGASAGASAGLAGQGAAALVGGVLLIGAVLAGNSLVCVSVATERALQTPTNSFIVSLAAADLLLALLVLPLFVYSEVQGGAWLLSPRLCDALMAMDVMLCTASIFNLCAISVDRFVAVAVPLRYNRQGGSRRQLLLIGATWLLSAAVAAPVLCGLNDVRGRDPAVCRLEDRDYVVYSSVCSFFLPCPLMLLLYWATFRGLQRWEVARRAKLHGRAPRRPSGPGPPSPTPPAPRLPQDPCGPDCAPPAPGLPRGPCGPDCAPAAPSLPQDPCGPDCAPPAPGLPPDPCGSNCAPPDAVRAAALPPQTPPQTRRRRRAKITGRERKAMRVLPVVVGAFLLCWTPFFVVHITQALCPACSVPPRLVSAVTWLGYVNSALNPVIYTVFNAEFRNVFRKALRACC

[1] = Binding affinity to adrenergic alpha1 receptor
[2] = Binding affinity to human cloned dopamine D4.2 receptor
[3] = Binding affinity to human cloned dopamine D4.7 receptor
[4] = target: 5-hydroxytryptamine receptor 2A (Homo sapiens, UniProt P28223); assay: Binding affinity to 5HT2A
Sequence of 5-hydroxytryptamine receptor 2A (P28223 whole entry): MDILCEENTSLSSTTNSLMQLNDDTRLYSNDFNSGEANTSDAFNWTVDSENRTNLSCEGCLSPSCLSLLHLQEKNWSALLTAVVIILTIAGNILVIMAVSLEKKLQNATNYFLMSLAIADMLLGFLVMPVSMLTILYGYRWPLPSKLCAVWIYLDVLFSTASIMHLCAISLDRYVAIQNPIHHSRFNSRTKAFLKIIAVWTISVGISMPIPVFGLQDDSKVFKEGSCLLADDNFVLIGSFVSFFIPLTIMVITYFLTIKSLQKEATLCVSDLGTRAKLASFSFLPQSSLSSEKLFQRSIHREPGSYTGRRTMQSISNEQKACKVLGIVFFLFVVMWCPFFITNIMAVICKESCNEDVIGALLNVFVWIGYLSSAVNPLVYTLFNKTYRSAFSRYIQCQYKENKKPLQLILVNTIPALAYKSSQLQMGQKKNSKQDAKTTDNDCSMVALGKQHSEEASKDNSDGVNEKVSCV

[5] = Antagonist activity at adrenergic alpha1 receptor; assay type: functional
[6] = Binding affinity to adrenergic alpha1L receptor
[7] = Binding affinity to adrenergic alpha1H receptor
Rattus norvegicus = species on record: Rattus norvegicus; assay: Antagonistic activity at alpha 1-adrenoceptor in rat; assay type: functional, organism-based; conditions: read-out: pA2 (converted)
[8] = Binding affinity to adrenergic alpha1N receptor
[9] = target: T2, 5-hydroxytryptamine receptor 1A (Homo sapiens, UniProt P08908); assay: Binding affinity to 5HT1A
T2 sequence (P08908 whole entry): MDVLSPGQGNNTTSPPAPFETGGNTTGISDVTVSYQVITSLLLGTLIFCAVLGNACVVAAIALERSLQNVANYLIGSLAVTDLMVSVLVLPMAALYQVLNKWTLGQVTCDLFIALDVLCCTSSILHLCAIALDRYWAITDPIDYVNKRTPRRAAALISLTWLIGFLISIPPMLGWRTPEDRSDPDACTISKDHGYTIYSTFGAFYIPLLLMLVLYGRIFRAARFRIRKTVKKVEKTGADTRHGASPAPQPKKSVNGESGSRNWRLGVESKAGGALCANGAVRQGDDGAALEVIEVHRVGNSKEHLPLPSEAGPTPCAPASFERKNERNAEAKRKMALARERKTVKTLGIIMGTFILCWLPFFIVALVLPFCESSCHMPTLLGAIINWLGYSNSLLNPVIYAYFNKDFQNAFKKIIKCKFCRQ

[10] = target: T3, Alpha-1A adrenergic receptor (Homo sapiens, UniProt P35348); assay: Binding affinity to adrenergic alpha1A receptor
T3 sequence (P35348 whole entry): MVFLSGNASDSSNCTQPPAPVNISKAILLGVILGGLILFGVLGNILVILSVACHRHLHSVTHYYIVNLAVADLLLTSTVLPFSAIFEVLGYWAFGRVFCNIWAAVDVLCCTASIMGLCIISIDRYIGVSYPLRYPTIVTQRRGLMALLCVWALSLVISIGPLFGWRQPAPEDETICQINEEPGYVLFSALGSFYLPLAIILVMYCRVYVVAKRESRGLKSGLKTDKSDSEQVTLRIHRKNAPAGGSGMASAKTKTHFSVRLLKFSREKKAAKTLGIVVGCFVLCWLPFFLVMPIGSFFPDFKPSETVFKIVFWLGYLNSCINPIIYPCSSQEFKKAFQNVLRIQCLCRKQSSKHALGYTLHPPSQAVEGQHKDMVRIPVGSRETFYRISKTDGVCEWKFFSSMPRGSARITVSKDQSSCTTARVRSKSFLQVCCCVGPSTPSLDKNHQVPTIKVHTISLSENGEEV

D(2) dopamine receptor = D(2) dopamine receptor (Homo sapiens, UniProt P14416); assay: Binding affinity to dopamine D2 receptor
Sequence of D(2) dopamine receptor (P14416 whole entry): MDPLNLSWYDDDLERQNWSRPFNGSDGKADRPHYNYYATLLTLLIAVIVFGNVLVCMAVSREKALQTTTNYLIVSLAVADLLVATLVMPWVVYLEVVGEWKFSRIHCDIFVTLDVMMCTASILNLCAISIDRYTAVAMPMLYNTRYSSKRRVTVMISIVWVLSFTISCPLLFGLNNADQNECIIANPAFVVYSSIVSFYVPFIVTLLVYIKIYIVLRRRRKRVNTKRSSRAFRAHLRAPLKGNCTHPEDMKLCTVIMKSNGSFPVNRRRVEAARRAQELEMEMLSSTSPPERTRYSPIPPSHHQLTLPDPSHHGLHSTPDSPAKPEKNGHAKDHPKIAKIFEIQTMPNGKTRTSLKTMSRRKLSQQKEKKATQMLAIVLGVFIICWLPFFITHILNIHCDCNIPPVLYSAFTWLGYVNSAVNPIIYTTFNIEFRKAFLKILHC

D(3) dopamine receptor = D(3) dopamine receptor (Homo sapiens, UniProt P35462); assay: Binding affinity to dopamine D3 receptor
Sequence of D(3) dopamine receptor (P35462 whole entry): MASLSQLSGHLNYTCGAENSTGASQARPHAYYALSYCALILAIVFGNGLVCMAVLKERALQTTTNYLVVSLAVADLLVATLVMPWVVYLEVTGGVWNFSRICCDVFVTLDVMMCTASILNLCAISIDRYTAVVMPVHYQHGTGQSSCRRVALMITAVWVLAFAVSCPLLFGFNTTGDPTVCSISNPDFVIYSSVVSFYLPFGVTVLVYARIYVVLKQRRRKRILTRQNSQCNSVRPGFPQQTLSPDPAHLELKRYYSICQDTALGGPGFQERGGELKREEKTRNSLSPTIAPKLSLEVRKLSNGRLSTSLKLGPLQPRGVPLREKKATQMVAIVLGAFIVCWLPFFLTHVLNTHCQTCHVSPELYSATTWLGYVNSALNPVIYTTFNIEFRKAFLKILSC

[11] = Binding affinity to 5HT2
[12] = target: 5-hydroxytryptamine receptor 1B (Homo sapiens, UniProt P28222); assay: Binding affinity to 5HT1B
Sequence of 5-hydroxytryptamine receptor 1B (P28222 whole entry): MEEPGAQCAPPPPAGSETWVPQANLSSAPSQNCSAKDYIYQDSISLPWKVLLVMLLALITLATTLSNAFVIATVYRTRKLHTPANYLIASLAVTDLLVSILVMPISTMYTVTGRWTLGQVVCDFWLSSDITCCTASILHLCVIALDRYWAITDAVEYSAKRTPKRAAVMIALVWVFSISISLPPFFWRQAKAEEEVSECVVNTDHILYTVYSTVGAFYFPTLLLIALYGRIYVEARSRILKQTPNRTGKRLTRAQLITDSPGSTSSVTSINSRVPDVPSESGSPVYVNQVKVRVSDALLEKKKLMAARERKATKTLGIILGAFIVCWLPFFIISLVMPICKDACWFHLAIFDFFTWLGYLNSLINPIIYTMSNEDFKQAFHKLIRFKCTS

[13] = Binding affinity to adrenergic alpha2 receptor
[14] = target: T4, Alpha-1B adrenergic receptor (Homo sapiens) (UniProt P35368); assay: Antagonist activity at adrenergic Alpha-1B receptor; assay type: functional
T4 sequence (whole entry): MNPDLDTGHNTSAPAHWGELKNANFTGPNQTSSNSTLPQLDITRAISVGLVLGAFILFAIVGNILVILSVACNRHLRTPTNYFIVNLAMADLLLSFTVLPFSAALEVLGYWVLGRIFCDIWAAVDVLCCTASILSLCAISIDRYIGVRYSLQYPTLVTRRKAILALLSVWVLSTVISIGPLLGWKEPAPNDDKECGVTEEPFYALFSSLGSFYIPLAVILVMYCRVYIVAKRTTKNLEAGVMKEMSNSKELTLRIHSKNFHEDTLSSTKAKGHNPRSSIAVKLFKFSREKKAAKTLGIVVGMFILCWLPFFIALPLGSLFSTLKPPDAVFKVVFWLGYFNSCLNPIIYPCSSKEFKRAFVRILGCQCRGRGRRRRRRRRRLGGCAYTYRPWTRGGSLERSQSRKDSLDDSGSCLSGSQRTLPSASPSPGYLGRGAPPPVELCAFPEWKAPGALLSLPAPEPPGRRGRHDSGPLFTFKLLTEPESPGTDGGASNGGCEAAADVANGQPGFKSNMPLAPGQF

[15] = target: T5, Alpha-1D adrenergic receptor (Homo sapiens) (UniProt P25100); assay: Antagonist activity at adrenergic Alpha-1D receptor; assay type: functional
T5 sequence (whole entry): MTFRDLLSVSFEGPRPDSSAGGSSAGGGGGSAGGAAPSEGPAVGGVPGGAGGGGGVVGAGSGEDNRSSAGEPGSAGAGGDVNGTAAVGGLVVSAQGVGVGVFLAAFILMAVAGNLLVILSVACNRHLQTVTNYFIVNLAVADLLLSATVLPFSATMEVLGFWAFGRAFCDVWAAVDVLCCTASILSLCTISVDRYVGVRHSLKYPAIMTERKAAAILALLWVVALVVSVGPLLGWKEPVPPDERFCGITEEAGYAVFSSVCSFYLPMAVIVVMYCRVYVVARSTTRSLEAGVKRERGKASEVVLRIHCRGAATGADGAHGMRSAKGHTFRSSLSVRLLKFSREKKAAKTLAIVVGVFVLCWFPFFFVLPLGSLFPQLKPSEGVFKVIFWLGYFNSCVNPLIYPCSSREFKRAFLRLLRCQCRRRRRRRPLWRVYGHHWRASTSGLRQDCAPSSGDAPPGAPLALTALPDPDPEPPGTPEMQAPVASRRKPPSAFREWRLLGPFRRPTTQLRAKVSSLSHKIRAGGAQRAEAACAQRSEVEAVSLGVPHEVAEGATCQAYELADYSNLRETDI

[16] = Dissociation constant, pKb of the compound; assay type: physicochemical
[17] = target: T6, Alpha-1A adrenergic receptor (Oryctolagus cuniculus, UniProt O02824); assay: Agonist activity at rabbit urethra adrenergic alpha1A receptor; assay type: functional
T6 sequence (O02824 whole entry): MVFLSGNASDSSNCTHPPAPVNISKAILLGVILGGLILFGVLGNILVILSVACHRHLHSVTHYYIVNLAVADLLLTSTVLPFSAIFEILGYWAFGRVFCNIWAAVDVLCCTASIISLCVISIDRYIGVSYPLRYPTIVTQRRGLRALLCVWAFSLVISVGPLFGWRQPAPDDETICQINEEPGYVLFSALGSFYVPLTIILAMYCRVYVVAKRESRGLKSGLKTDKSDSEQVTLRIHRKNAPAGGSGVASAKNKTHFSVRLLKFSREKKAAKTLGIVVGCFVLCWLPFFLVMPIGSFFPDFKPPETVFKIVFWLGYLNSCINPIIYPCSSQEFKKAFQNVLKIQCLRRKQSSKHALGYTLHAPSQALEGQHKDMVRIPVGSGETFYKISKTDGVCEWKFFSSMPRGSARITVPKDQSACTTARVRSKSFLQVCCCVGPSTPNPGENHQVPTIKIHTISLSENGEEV

[18] = target: T7, Alpha-1A adrenergic receptor (Rattus norvegicus) (UniProt P43140); assay: (§1) Antagonist activity at rat spleen adrenergic alpha1A receptor; assay type: functional, tissue-based
T7 sequence (whole entry): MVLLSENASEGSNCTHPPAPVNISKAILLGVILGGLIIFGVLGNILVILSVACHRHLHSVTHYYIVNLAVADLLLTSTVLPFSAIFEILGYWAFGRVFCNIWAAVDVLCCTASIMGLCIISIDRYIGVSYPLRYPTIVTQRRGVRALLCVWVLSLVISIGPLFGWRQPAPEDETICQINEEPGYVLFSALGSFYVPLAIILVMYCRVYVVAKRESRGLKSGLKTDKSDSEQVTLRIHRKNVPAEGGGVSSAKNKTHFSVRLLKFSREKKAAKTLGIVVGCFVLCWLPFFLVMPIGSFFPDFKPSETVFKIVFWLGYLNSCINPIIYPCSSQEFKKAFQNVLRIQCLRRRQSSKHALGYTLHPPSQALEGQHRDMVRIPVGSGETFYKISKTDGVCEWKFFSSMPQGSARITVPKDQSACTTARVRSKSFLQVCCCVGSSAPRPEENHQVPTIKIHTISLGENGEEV

[19] = target: T8, Alpha-1A adrenergic receptor (Rattus norvegicus, UniProt P43140); assay: as §1; assay type: functional, tissue-based; conditions: read-out: pA2 (converted)
T8 sequence (P43140 whole entry): T7 sequence (whole entry)

[20] = target: T9, Alpha-1A adrenergic receptor (Oryctolagus cuniculus) (UniProt O02824); assay: Antagonist activity at rabbit urethra adrenergic alpha1A receptor relative to phenylephrine; assay type: functional; parameters: scale not given: the % may be the effect or the level left
T9 sequence (whole entry): T6 sequence (O02824 whole entry)

[21] = target: T7, Alpha-1A adrenergic receptor (Rattus norvegicus); assay: Antagonist activity at rat spleen adrenergic alpha1A receptor relative to phenylephrine; assay type: functional, tissue-based; parameters: scale not given: the % may be the effect or the level left
[22] = Selectivity for alpha2 adrenergic receptor over alpha1 adrenergic receptor
Homo sapiens [23] = species on record: Homo sapiens; assay: Selectivity for human alpha1A adrenergic receptor over human cloned alpha2A adrenergic receptor
Homo sapiens [24] = species on record: Homo sapiens; assay: Selectivity for human alpha1A adrenergic receptor over human cloned alpha2B adrenergic receptor
Homo sapiens [25] = species on record: Homo sapiens; assay: Selectivity for human alpha1A adrenergic receptor over human cloned Alpha-2C adrenergic receptor

SMILES: Nc1nc(-c2ccc(F)cc2)c([C@@H]2CCN(CCCC(=O)c3ccc(F)cc3)C2)s1
- Ki (D(4) dopamine receptor): 0.55 nM
- Ki ([1]; read-out: Ki): 1.4 nM
- Ki [2]: 2.54 nM
- Ki [3]: 0.54 nM
- Ki [4]: 1.92 nM

SMILES: COc1cccc(N2CCN(CCNC(=O)c3ccco3)CC2)c1.Cl
- pA2 [5]: 8.56

SMILES: COc1cc2nc(N3CCN(C(=O)c4ccco4)CC3)nc(N)c2cc1OC [PRAZOSIN]
- Kb [6]: > 2 nM
- Kb [7]: < 1 nM
- Kb (Rattus norvegicus): 10 nM
- Ki ([1]; read-out: Ki): 0.32 nM
- Kb [8]: > 2 nM

SMILES: NC(=O)CN(CCc1ccccc1)C(=O)CN(C(=O)CNCCc1ccc(O)cc1)c1ccc(-c2ccccc2)cc1
- Ki ([1]; read-out: Ki): 0.32 nM

SMILES: Cc1cc(C)c2c(N)nc(N3CCN(C(=O)c4ccco4)CC3)nc2n1
- Kb (Rattus norvegicus): 15.8 nM

SMILES: COc1cccc(OC)c1OCCNCC1COc2ccccc2O1 (configuration not stated)
- Ki [1]: 0.54 nM

SMILES: CC(C)Oc1ccccc1N1CCN(Cc2cccc(C(=O)N3CCCCC3)c2)CC1 [MAZAPERTINE]
- Ki ([1]; read-out: Ki): < 4 nM
- Ki [9]: < 4 nM
- Ki [10]: 0.02 nM
- Ki (D(2) dopamine receptor): < 4 nM
- Ki (D(3) dopamine receptor): < 4 nM
- Ki [11]: 165 nM
- Ki [12]: 2880 nM
- Ki [13]: 17 nM

SMILES: COC(=O)[C@@H]1[C@H]2C[C@H]3c4[nH]c5ccccc5c4CCN3C[C@@H]2CC[C@@H]1O
- Kb [7]: > 300 nM
- Kb [8]: < 100 nM

SMILES: O=C1NCCN1CCN1CCC(c2cn(-c3ccc(F)cc3)c3ccc(Cl)cc23)CC1
- Activity [14]: 3.2 nM
- Activity [15]: 9 nM

SMILES: COc1ccccc1OCCN1CCN(c2ccn[nH]c2=O)CC1
- pKb [16]: 6.18

SMILES: COc1ccccc1N1CCN(CCNC(=O)c2ccco2)CC1.Cl
- pA2 [5]: 9.12

SMILES: CCS(=O)(=O)Nc1cccc(Cc2c[nH]cn2)c1
- EC50 [17]: 60 nM
- pD2 [18]: 6.16
- Kb [19]: 3980 nM
- Activity [20]: 80%
- Activity [21]: 11%

SMILES: COc1ccccc1OCCN1CCN(c2ccc(=O)n(Cn3nc(N4CCN(CCOc5ccccc5OC)CC4)ccc3=O)n2)CC1
- Selectivity ratio [22]: > 100

SMILES: COc1ccc(Cl)cc1N1CCN(CCNC(=O)c2ccco2)CC1.Cl
- pA2 [5]: 8.56

SMILES: O=C(CCCN1CCC(O)(c2ccc(Cl)cc2)CC1)c1ccc(F)cc1 [HALOPERIDOL]
- Ki ([1]; read-out: Ki): 1 nM

SMILES: NC(=O)CN(CCc1ccccc1)C(=O)CN(C(=O)CNCCc1ccc(O)cc1)c1ccc(Oc2ccccc2)cc1
- Ki ([1]; read-out: Ki): 140 nM

SMILES: NC(=O)CN(CCc1ccc(-c2ccccc2)cc1)C(=O)CN(C(=O)CNCCc1ccc(O)cc1)c1ccc(-c2ccccc2)cc1
- Ki ([1]; read-out: Ki): 310 nM

SMILES: COC(=O)C1=C(C)NC(C)=C(C(=O)NCCCN2CCC(c3ccccc3)(c3ccccc3)CC2)C1c1ccc([N+](=O)[O-])cc1 (configuration not stated)
- Selectivity ratio (Homo sapiens [23]): > 1000
- Selectivity ratio (Homo sapiens [24]): > 1000
- Selectivity ratio (Homo sapiens [25]): > 1000

SMILES: CN1CCN(C2=Nc3cc(Cl)ccc3Nc3ccccc32)CC1 [CLOZAPINE]
- Ki ([1]; read-out: Ki): 1.4 nM
